Source: the supplement of paper PMC10307832

Tests used:
Experiment in all cases: relative viability (nuclei count vs DMSO), 5 days (fraction); higher = more cells survive
NCI-H1437 = test system: NCI-H1437
In short: (§1)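 Five library-drug doses in √10 steps were combined with a fixed anchor-drug dose, or a single drug was given alone, by pin tool to lung cancer cell lines in 1536-well plates the day after seeding. Nuclei were stained and counted after 5 days. Relative viability is the nuclei count in treated wells over that in vehicle wells, taken as the median of duplicate plates.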

NCI-H1792 = test system: NCI-H1792
In short: as §1

NCI-H650 = test system: NCI-H650
In short: as §1

SK-MES-1 = test system: SK-MES-1
In short: as §1

HCC-827 = test system: HCC-827
In short: as §1

NCI-H596 = test system: NCI-H596
In short: as §1

SW 900 = test system: SW 900
In short: as §1

NCI-H1666 = test system: NCI-H1666
In short: as §1

A-427 = test system: A-427
In short: as §1

NCI-H1650 = test system: NCI-H1650
In short: as §1

HCC-15 = test system: HCC-15
In short: as §1

COR-L23 = test system: COR-L23
In short: as §1

NCI-H1975 = test system: NCI-H1975
In short: as §1

NCI-H2342 = test system: NCI-H2342
In short: as §1

NCI-H358 = test system: NCI-H358
In short: as §1

NCI-H441 = test system: NCI-H441
In short: as §1

HARA = test system: HARA
In short: as §1

NCI-H838 = test system: NCI-H838
In short: as §1

201T = test system: 201T
In short: as §1

NCI-H23 = test system: NCI-H23
In short: as §1

BEN = test system: BEN
In short: as §1

EKVX = test system: EKVX
In short: as §1

COc1nc(C)cnc1NS(=O)(=O)c1cccnc1-c1ccc(-c2nnco2)cc1 [Zibotentan] + Cc1nc(Nc2ncc(C(=O)Nc3c(C)cccc3Cl)s2)cc(N2CCN(CCO)CC2)n1 [Dasatinib] (partner 0.075 µM)
relative viability (NCI-H1437; first compound 0.08 µM): 0.408
relative viability (NCI-H1437; first compound 0.253 µM): 0.292
relative viability (NCI-H1437; first compound 0.8 µM): 0.283
relative viability (NCI-H1437; first compound 2.53 µM): 0.428
relative viability (NCI-H1792; first compound 0.08 µM): 0.872
relative viability (NCI-H1792; first compound 0.253 µM): 0.664
relative viability (NCI-H1792; first compound 0.8 µM): 0.635
relative viability (NCI-H1792; first compound 2.53 µM): 0.827
relative viability (NCI-H650; first compound 0.08 µM): 0.49
relative viability (NCI-H650; first compound 0.253 µM): 0.418
relative viability (NCI-H650; first compound 0.8 µM): 0.46
relative viability (NCI-H650; first compound 2.53 µM): 0.468
relative viability (SK-MES-1; first compound 0.08 µM): 0.333
relative viability (SK-MES-1; first compound 0.253 µM): 0.261
relative viability (SK-MES-1; first compound 0.8 µM): 0.473
relative viability (SK-MES-1; first compound 2.53 µM): 0.363
relative viability (HCC-827; first compound 0.08 µM): 0.394
relative viability (HCC-827; first compound 0.253 µM): 0.267
relative viability (HCC-827; first compound 0.8 µM): 0.247
relative viability (HCC-827; first compound 2.53 µM): 0.384
relative viability (NCI-H596; first compound 0.08 µM): 0.68
relative viability (NCI-H596; first compound 0.253 µM): 0.549
relative viability (NCI-H596; first compound 0.8 µM): 0.538
relative viability (NCI-H596; first compound 2.53 µM): 0.561
relative viability (SW 900; first compound 0.08 µM): 0.633
relative viability (SW 900; first compound 0.253 µM): 0.59
relative viability (SW 900; first compound 0.8 µM): 0.562
relative viability (SW 900; first compound 2.53 µM): 0.911
relative viability (NCI-H1666; first compound 0.08 µM): 0.883
relative viability (NCI-H1666; first compound 0.253 µM): 0.706
relative viability (NCI-H1666; first compound 0.8 µM): 0.821
relative viability (NCI-H1666; first compound 2.53 µM): 0.907
relative viability (A-427; first compound 0.08 µM): 0.908
relative viability (A-427; first compound 0.253 µM): 0.69
relative viability (A-427; first compound 0.8 µM): 0.7
relative viability (A-427; first compound 2.53 µM): 0.828
relative viability (NCI-H1650; first compound 0.08 µM): 0.35
relative viability (NCI-H1650; first compound 0.8 µM): 0.27
relative viability (NCI-H1650; first compound 2.53 µM): 0.4
relative viability (HCC-15; first compound 0.08 µM): 0.601
relative viability (HCC-15; first compound 0.8 µM): 0.512
relative viability (HCC-15; first compound 2.53 µM): 0.684
relative viability (COR-L23; first compound 0.08 µM): 0.502
relative viability (COR-L23; first compound 0.253 µM): 0.485
relative viability (COR-L23; first compound 0.8 µM): 0.488
relative viability (COR-L23; first compound 2.53 µM): 0.5
relative viability (NCI-H1975; first compound 0.08 µM): 0.378
relative viability (NCI-H1975; first compound 0.253 µM): 0.341
relative viability (NCI-H1975; first compound 0.8 µM): 0.307
relative viability (NCI-H1975; first compound 2.53 µM): 0.376
relative viability (NCI-H2342; first compound 0.08 µM): 0.354
relative viability (NCI-H2342; first compound 0.253 µM): 0.308
relative viability (NCI-H2342; first compound 0.8 µM): 0.309
relative viability (NCI-H2342; first compound 2.53 µM): 0.314
relative viability (NCI-H358; first compound 0.08 µM): 0.175
relative viability (NCI-H358; first compound 0.253 µM): 0.152
relative viability (NCI-H358; first compound 0.8 µM): 0.151
relative viability (NCI-H358; first compound 2.53 µM): 0.166
relative viability (NCI-H441; first compound 0.08 µM): 0.715
relative viability (NCI-H441; first compound 0.253 µM): 0.476
relative viability (NCI-H441; first compound 0.8 µM): 0.679
relative viability (NCI-H441; first compound 2.53 µM): 0.677
relative viability (HARA; first compound 0.08 µM): 0.239
relative viability (HARA; first compound 0.253 µM): 0.227
relative viability (HARA; first compound 0.8 µM): 0.24
relative viability (HARA; first compound 2.53 µM): 0.243
relative viability (NCI-H838; first compound 0.08 µM): 0.28
relative viability (NCI-H838; first compound 0.253 µM): 0.233
relative viability (NCI-H838; first compound 0.8 µM): 0.283
relative viability (NCI-H838; first compound 2.53 µM): 0.305
relative viability (201T; first compound 0.08 µM): 0.676
relative viability (201T; first compound 0.253 µM): 0.569
relative viability (201T; first compound 0.8 µM): 0.576
relative viability (201T; first compound 2.53 µM): 0.624
relative viability (NCI-H23; first compound 0.08 µM): 0.859
relative viability (NCI-H23; first compound 0.253 µM): 0.711
relative viability (NCI-H23; first compound 0.8 µM): 0.553
relative viability (NCI-H23; first compound 2.53 µM): 0.928
relative viability (BEN; first compound 0.08 µM): 0.289
relative viability (BEN; first compound 0.253 µM): 0.32
relative viability (BEN; first compound 0.8 µM): 0.316
relative viability (BEN; first compound 2.53 µM): 0.353
relative viability (EKVX; first compound 0.08 µM): 0.612
relative viability (EKVX; first compound 0.253 µM): 0.529
relative viability (EKVX; first compound 0.8 µM): 0.392
relative viability (EKVX; first compound 2.53 µM): 0.572
